Activity data for 58 compounds are collected here from ChEMBL document CHEMBL1123032, “Antiparasitic agents. 6. Synthesis and anthelmintic activities of novel isothiocyanatophenyl-1,2,4-oxadiazoles” (1985).

What all share (assay type): functional
The species entered for assay [1] is Mus musculus. The assay can be described thus: Compound was evaluated for antihelminthic activity in the diet against Nematospiroides dubius in mice at a concentration 0.013%.
For assay [2], the species on record is Mus musculus. The assay can be described thus: Compound was evaluated for antihelminthic activity in the diet against Nematospiroides dubius in mice at a concentration 0.025%.
The species named for assay [3] is Mus musculus. In words: Compound was evaluated for antihelminthic activity in the diet against Nematospiroides dubius in mice at a concentration 0.1%.
The species named for assay [4] is Mus musculus. In words: Compound was evaluated for antihelminthic activity in the diet against Nematospiroides dubius in mice at concentration 0.2%.
For assay [5], the species on record is Mus musculus. The assay can be described thus: Compound was evaluated for antihelminthic activity in the diet against Nematospiroides dubius in mice at a concentration 0.05%.
The next assay concerns Rodentolepis nana. In words: Evaluation for antihelminthic activity against Hymenolepis nana when the dose was administered orally in mouse.
A short description of assay [6]: Anthelmintic activity against Nematospiroides dubius when the dose was administered orally in mouse. More on the design: concentration or dose not given beside the values.
Assay [7] concerns Mus musculus. The assay can be described thus: Compound was evaluated for antihelminthic activity against Hymenolepis nana when the dose was administered subcutaneously in mouse.
The subject of assay [8] is Mus musculus. In words: Compound was evaluated for antihelminthic activity against Hymenolepis nana when the dose was administered orally in mouse after destrobilization.

Take `CCCCCCCCCCCc1nc(N)no1`: the Activity turned out to be 8% in the assay listed under Mus musculus [1]; 35% in the assay filed under Mus musculus [2]; 70% in the assay listed under Mus musculus [3]; 93% in the assay listed under Mus musculus [4]; 46% in the assay listed under Mus musculus [5].

As for `Nc1ccc(-c2nc(-c3ccc(Cl)cc3)no2)cc1`, the Activity (with Rodentolepis nana; in [6]) was 0% in each case.

`S=C=Nc1ccc(-c2nc(-c3ccccn3)no2)cc1`: the Activity (in the assay on Rodentolepis nana; in assay [6]) was 0% in each case.

Consider `S=C=Nc1ccc(-c2noc(CCl)n2)cc1`, for which the results for the Activity (in the assay on Rodentolepis nana; in assay [6]) were 0% and 38%, respectively.

With `O=C(Nc1ccc(-c2nc(-c3ccco3)no2)c(Cl)c1)OCC(Cl)(Cl)Cl`, the Activity (with Rodentolepis nana; in [6]) was 0% each time.

Regarding `COC(=O)Nc1ccc(-c2nc(-c3ccco3)no2)c(Cl)c1`, the Activity (with Rodentolepis nana; in assay [6]) was 0% in each case.

`CCOC(=O)c1nc(-c2ccc(N=C=S)cc2)no1`: the Activity (in the assay on Rodentolepis nana; in assay [6]) was 0% throughout.

Turning to `S=C=Nc1ccc(-c2noc(-c3ccc(Cl)cc3)n2)cc1`, the Activity (in the assay with Rodentolepis nana; in [6]) was 0% throughout.

Regarding `c1ccc(-c2nc(CCn3cnc4ccccc43)no2)cc1`, the Activity (in the assay with Rodentolepis nana; in [6]) was 0% each time.

As to `O=C(Nc1ccc(-c2ncon2)cc1)Oc1ccccc1`, the Activity (with Rodentolepis nana; in assay [6]) was 0% throughout.

As for `S=C=Nc1cc(-c2nc(-c3ccco3)no2)ccc1Sc1ccccc1`, the Activity (with Rodentolepis nana; in assay [6]) was 0% throughout.

With `Nc1ccc(-c2ncon2)cc1`, the Activity (in the assay with Rodentolepis nana; in assay [6]) was 0% each time.

As to `O=[N+]([O-])c1cc(/C=N/c2ccc(-c3ncon3)cc2)ccc1Cl`, the Activity (with Rodentolepis nana; in assay [6]) was 0% throughout.

Take `O=[N+]([O-])c1ccc2ncn(CCc3noc(-c4ccccc4)n3)c2c1`: the Activity (in the assay on Rodentolepis nana; in assay [6]) was 0% throughout.

Consider `CN1CCN(Cc2nc(-c3ccc(N=C=S)cc3)no2)CC1`, for which the Activity (with Rodentolepis nana; in [6]) was 0% each time.

As for `COCCc1nc(-c2ccc(N=C=S)cc2)no1`, the Activity (in the assay with Rodentolepis nana; in [6]) was 0% throughout.

As to `CCN(CC)/C(S)=N\c1cc(-c2nc(-c3ccco3)no2)ccc1Cl`, the Activity (in the assay on Rodentolepis nana; in assay [6]) was 0% in each case.

For `S=C=Nc1ccc(-c2noc(-c3cccs3)n2)cc1`, the figures for the Activity (in the assay with Rodentolepis nana; in [6]) were 25% and 57%, respectively.

Regarding `COC(=O)Nc1cc(-c2nc(-c3ccco3)no2)ccc1Cl`, the Activity (in the assay on Rodentolepis nana; in [6]) was 0% each time.

In the case of `CCOC(=O)Cc1nc(-c2ccc(N=C=S)cc2)no1`, the Activity (with Rodentolepis nana; in assay [6]) was 0% in each case.

Turning to `S=C=Nc1ccc(-c2nc(-c3cccs3)no2)cc1`, the Activity in the assay on Rodentolepis nana came to 33%; in assay [6], 22%.

For `S=C=Nc1ccc(-c2noc(C3CCCCC3)n2)cc1`, the results for the Activity (in the assay with Rodentolepis nana; in [6]) were 25% and 0%, respectively.

In the case of `S=C=Nc1cccc(-c2ncon2)c1`, the Activity (with Rodentolepis nana; in assay [6]) was 0% in each case.

`O=C(Nc1cc(-c2nc(-c3ccco3)no2)ccc1Cl)Oc1ccccc1`: the Activity (in the assay on Rodentolepis nana; in [6]) was 0% each time.

On to `c1ccc2[nH]c(-c3cscn3)nc2c1` [THIABENDAZOLE], for which the Activity worked out at 47% in the assay listed under Mus musculus [1]; 81% in the assay listed under Mus musculus [2]; 100% in the assay filed under Mus musculus [3]; 100% in the assay listed under Mus musculus [4]; 94% in the assay listed under Mus musculus [5].

With `S=C=Nc1cc(-c2ncon2)ccc1Cl`, the Activity (in the assay with Rodentolepis nana; in assay [6]) was 0% throughout.

For the compound `C(=C\c1cccs1)/c1noc(/C=C/c2cccs2)n1`, the Activity (with Rodentolepis nana; in assay [6]) was 0% each time.

For `Fc1ccc(-c2nc(-c3ccc(N=C=S)cc3)no2)cc1`, the Activity in the assay with Rodentolepis nana came to 0%; in assay [6], 42%.

Regarding `S=C=Nc1ccc(-c2ncon2)cc1`, the Activity in the assay listed under Mus musculus [1] came out at 48%; in the assay listed under Mus musculus [2], 82%; in the assay filed under Mus musculus [3] it was 100%; in the assay listed under Mus musculus [4], 100%; in the assay on Mus musculus [7], 100%; in [6] it was 100%. The Activity in the assay on Mus musculus [8] turned out to be 0%; in the assay filed under Mus musculus [5], 96%.

`S=C=Nc1ccc(-c2noc(C34CC5CC(CC(C5)C3)C4)n2)cc1`: the Activity (in the assay with Rodentolepis nana; in [6]) was 0% throughout.

As to `O=[N+]([O-])c1ccc(/C=N\c2ccc(-c3ncon3)cc2)o1`, the Activity (in the assay on Rodentolepis nana; in [6]) was 0% each time.

Consider `Clc1ccc(/C=N/c2ccc(-c3ncon3)cc2)cc1`, for which the Activity (in the assay with Rodentolepis nana; in assay [6]) was 0% in each case.

On to `C(=N/c1ccc(-c2ncon2)cc1)/c1ccc[nH]1`, for which the Activity (in the assay with Rodentolepis nana; in assay [6]) was 0% each time.

In the case of `O=C(Nc1ccc(-c2nc(-c3ccco3)no2)c(Cl)c1)Oc1ccccc1`, the Activity (with Rodentolepis nana; in assay [6]) was 0% each time.

Regarding `c1cc(-c2ncon2)ccn1`, the Activity (with Rodentolepis nana; in assay [6]) was 0% each time.

For `S=C=Nc1ccc(-c2nc(-c3ccco3)no2)c(Cl)c1`, the Activity with Rodentolepis nana is given as 100%; in assay [6], 0%.

Regarding `CCN(CC)/C(S)=N\c1ccc(-c2nc(-c3ccco3)no2)c(Cl)c1`, the Activity (with Rodentolepis nana; in assay [6]) was 0% in each case.

For the compound `S=C=Nc1cccc(-c2noc(-c3ccco3)n2)c1`, the Activity was 50% in the assay with Rodentolepis nana and 0% in [6].

Take `Nc1ccc(-c2nc(-c3ccc(F)cc3)no2)cc1`: the Activity in the assay with Rodentolepis nana amounted to 0%; in assay [6], 18%.

In the case of `Clc1ccc(-c2ncon2)cc1`, the Activity in the assay filed under Mus musculus [1] was found to be 36%; in the assay listed under Mus musculus [2] it was 61%; in the assay filed under Mus musculus [3], 100%; in the assay filed under Mus musculus [5], 95%.

Turning to `O=[N+]([O-])CCc1nc(-c2ccccc2)no1`, the Activity (in the assay on Rodentolepis nana; in assay [6]) was 0% in each case.

`CC(=O)Oc1ccccc1-c1nc(-c2ccc(N=C=S)cc2)no1`: the Activity (with Rodentolepis nana; in assay [6]) was 0% each time.

Consider `S=C=Nc1ccc(-c2nc(-c3ccco3)no2)cc1`, for which the Activity worked out at 100% with Rodentolepis nana and 90% in [6].

As for `Fc1ccc(-c2noc(-c3ccc(N=C=S)cc3)n2)cc1`, the Activity (in the assay on Rodentolepis nana; in assay [6]) was 0% in each case.

Consider `S=C=Nc1cc(-c2nc(-c3ccco3)no2)ccc1Cl`, for which the Activity in the assay with Rodentolepis nana was found to be 100%; in [6] it was 0%.

As to `S=C=Nc1ccc(-c2noc(C3CC3)n2)cc1`, the Activity (with Rodentolepis nana; in assay [6]) was 0% in each case.

In the case of `S=C=Nc1ccc(-c2noc(-c3ccccn3)n2)cc1`, the Activity (in the assay on Rodentolepis nana; in assay [6]) was 0% in each case.

Consider `c1ccc(-c2nc(CCn3c(-c4cscn4)nc4ccccc43)no2)cc1`, for which the Activity in the assay with Rodentolepis nana is reported as 0%; in [6] it was 17%.

Consider `Nc1ccc(-c2nc(-c3ccco3)no2)c(Cl)c1`, for which the Activity (with Rodentolepis nana; in [6]) was 0% each time.

For the compound `Nc1cc(-c2nc(-c3ccco3)no2)ccc1Cl`, the Activity (with Rodentolepis nana; in [6]) was 0% in each case.

Turning to `COc1cc(-c2nc(-c3ccc(N=C=S)cc3)no2)cc(OC)c1OC`, the Activity (in the assay with Rodentolepis nana; in assay [6]) was 0% throughout.

On to `S=C=Nc1ccc(-c2noc(-c3ccco3)n2)cc1`, for which the Activity in the assay on Rodentolepis nana amounted to 0%; in assay [6], 72%.

Take `[O-][n+]1ccc(-c2ncon2)cc1`: the Activity (in the assay on Rodentolepis nana; in [6]) was 0% in each case.

Regarding `CSc1nc(-c2ccccc2)no1`, the Activity came out at 39% in the assay listed under Mus musculus [1]; 67% in the assay listed under Mus musculus [2]; 94% in the assay filed under Mus musculus [3]; 98% in the assay filed under Mus musculus [4]; 96% in the assay listed under Mus musculus [5].

As for `S=C=Nc1ccc(-c2noc(CCc3ccccc3)n2)cc1`, the Activity (in the assay with Rodentolepis nana; in assay [6]) was 0% in each case.

As to `O=C(Nc1cc(-c2nc(-c3ccco3)no2)ccc1Cl)OCC(Cl)(Cl)Cl`, the Activity (with Rodentolepis nana; in assay [6]) was 0% in each case.

Consider `S=C=Nc1ccc(-c2nc(-c3ccc(Cl)cc3)no2)cc1`, for which the Activity (in the assay on Rodentolepis nana; in [6]) was 0% throughout.

As to `CCc1nc(-c2ccc(N=C=S)cc2)no1`, the Activity is listed as 0% with Rodentolepis nana and 30% in [6].
